Test results published in patent US12157730B2, “Heteroaryl derivative, method for producing same, and pharmaceutical composition comprising same as effective component” (VORONOI INC., priority 2019, dated 2024).

Target: T1, Ba/F3 cell EGFR Exon20 ins NPH (Homo sapiens, UniProt P00533, INS773NPH)
T1 construct: expressed in transfected cells; host or cells: Ba/F3
Assay: Ba/F3 cell proliferation suppression, EGFR Exon20 ins NPH
Assay type: cell-based
Settings: GI50 class; Ba/F3 cell line with NPH inserted at Exon20 of EGFR; 72 hours
Procedure, shortened: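 Growth suppression determined as GI50 following 72 h exposure across 12 concentrations up to 50 um, with viability by luminescent ATP assay (CellTiter-Glo).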

Structure (SMILES)	Ba/F3 (NPH) Activity
C=CC(=O)Nc1cc(Nc2cc(N3OCC[C@@H]3c3cccc(OC)c3)ncn2)c(OC)cc1N1CCC(N2C[C@@H](C)O[C@@H](C)C2)CC1 [compound 727, N-(2-(4-((2S,6R)-2,6-dimethylmorpholino)piperidine-1-yl)-4-methoxy-5-((6-((R)-3-(3-methoxyphenyl)isoxazolidine-2-yl)pyrimidine-4-yl)amino)phenyl)acrylamide]	A (GI50 < 50 nM)
C=CC(=O)Nc1cc(Nc2cc(N3OCC[C@@H]3c3cccc(C#N)c3)ncn2)c(OC)cc1N1CCC(N2CCN(C(C)C)CC2)CC1 [compound 494, N-(5-((6-((R)-3-(3-cyanophenyl)isoxazolidine-2-yl)pyrimidine-4-yl)amino)-2-(4-(4-isopropylpiperazine-1-yl)piperidine-1-yl)-4-methoxyphenyl) acrylamide]	A (GI50 < 50 nM)
C=CC(=O)Nc1cc(Nc2cc(N3OCC[C@@H]3c3cccc4ccccc34)ncn2)c(OC)cc1N1CCC(N2CCN(C(C)C)CC2)CC1 [compound 490, N-(2-(4-(4-isopropylpiperazine-1-yl)piperidine-1-yl)-4-methoxy-5-((6-((R)-3-(naphthalene-1-yl)isoxazolidine-2-yl)pyrimidine-4-yl)amino)phenyl)acrylamide]	A (GI50 < 50 nM)
C=CC(=O)Nc1cc(Nc2cc(N3OCC[C@@H]3c3cc(F)cc(Cl)c3)ncn2)c(OC)cc1N1CCC(N2C[C@H]3CCN(C)[C@H]3C2)CC1 [compound 539, N-(5-((6-((R)-3-(3-chloro-5-fluorophenyl)isoxazolidine-2-yl)pyrimidine-4-yl)amino)-4-methoxy-2-(4-((3aR,6aR)-1-methylhexahydropyrrolo [3,4-b]pyrrole-5(1H)-yl)piperidine-1-yl)phenyl)acrylamide]	A (GI50 < 50 nM)
C=CC(=O)Nc1cc(Nc2cc(N3OCC[C@@H]3c3cccc4ccccc34)ncn2)c(OC)cc1N1CCN(CC)CC1 [compound 444, N-(2-(4-ethylpiperazine-1-yl)-4-methoxy-5-((6-((R)-3-(naphthalene-1-yl)isoxazolidine-2-yl)pyrimidine-4-yl)amino)phenyl)acrylamide]	B (50 nM ≤ GI50 < 500 nM)
C=CC(=O)Nc1cc(Nc2cc(N3OCC[C@@H]3c3cccc(F)c3)ncn2)c(OC)cc1N1CCC(N2CCN(C3COC3)CC2)CC1 [Example 80, N-(5-((6-((R)-3-(3-fluorophenyl)isoxazolidine-2-yl)pyrimidine-4-yl)amino)-4-methoxy-2-(4-(4-(oxetane-3-yl)piperazine-1-yl)piperidine-1-yl)phenyl) acrylamide]	A (GI50 < 50 nM)
C=CC(=O)Nc1cc(Nc2cc(N3OCC[C@@H]3c3ccc(F)c(Cl)c3)ncn2)c(OC)cc1N1CCC(N2CCN(C3CC3)C(C)(C)C2)CC1 [Example 181, N-(5-((6-((R)-3-(3-chloro-4-fluorophenyl)isoxazolidine-2-yl)pyrimidine-4-yl)amino)-2-(4-(4-cyclopropyl-3,3-dimethylpiperazine-1-yl)piperidine-1-yl)-4-methoxyphenyl) acrylamide]	A (GI50 < 50 nM)
C=CCN1CCN(C2CCN(c3cc(OC)c(Nc4cc(N5OCC[C@@H]5c5ccc(F)c(Cl)c5)ncn4)cc3NC(=O)C=C)CC2)CC1 [Example 89, N-(2-(4-(4-allylpiperazine-1-yl)piperidine-1-yl)-5-((6-((R)-3-(3-chloro-4-fluorophenyl)isoxazolidine-2-yl)pyrimidine-4-yl)amino)-4-methoxyphenyl) acrylamide]	A (GI50 < 50 nM)
C=CC(=O)Nc1cc(Nc2cc(N3OCC[C@@H]3c3ccc(Cl)cc3F)ncn2)c(OC)cc1N1CCC(N2C[C@@H](C)O[C@@H](C)C2)CC1 [compound 374, N-(5-((6-((R)-3-(4-chloro-2-fluorophenyl)isoxazolidine-2-yl)pyrimidine-4-yl)amino)-2-(4-((2S,6R)-2,6-dimethylmorpholino)piperidine-1-yl)-4-methoxyphenyl) acrylamide]	A (GI50 < 50 nM)
C=CC(=O)Nc1cc(Nc2cc(N3OCC[C@@H]3c3cccc(F)c3)ncn2)c(OC)cc1N1CCC(N2C[C@H]3C[C@@H]2CO3)CC1 [Example 243, N-(2-(4-((1R,4R)-2-oxa-5-azabicyclo[2.2.1]heptane-5-yl)piperidine-1-yl)-5-((6-((R)-3-(3-fluorophenyl)isoxazolidine-2-yl)pyrimidine-4-yl)amino)-4-methoxyphenyl) acrylamide]	A (GI50 < 50 nM)
C=CC(=O)Nc1cc(Nc2cc(N3OCC[C@@H]3c3ccccc3)ncn2)c(OC)cc1N1C[C@H]2C[C@@H]1CO2 [Example 33, N-(2-((1R,4R)-2-oxa-5-azabicyclo [2.2.1]heptane-5-yl)-4-methoxy-5-((6((R)-3-phenylisoxazolidine-2-yl)pyrimidine-4-yl)amino)phenyl) acrylamide]	A (GI50 < 50 nM)
C=CC(=O)Nc1cc(Nc2cc(N3OCC[C@H]3Cc3ccccn3)ncn2)c(OC)cc1N1CCC(N2CCN(C3CC3)CC2)CC1 [compound 1058, N-(2-(4-(4-cyclopropylpiperazine-1-yl)piperidine-1-yl)-4-methoxy-5-((6-((R)-3-(pyridine-2-ylmethyl)isoxazolidine-2-yl)pyrimidine-4-yl)amino)phenyl)acrylamide]	C (500 nM ≤ GI50 < 5000 nM)
C=CC(=O)Nc1cc(Nc2cc(N3OCC[C@@H]3c3cccc4ccccc34)ncn2)c(OC)cc1N(C)CCN(C)C [compound 440, N-(2-((2-(dimethylamino)ethyl) (methyl)amino)-4-methoxy-5-((6-((R)-3-(naphthalene-1-yl)isoxazolidine-2-yl)pyrimidine-4-yl)amino)phenyl)acrylamide]	A (GI50 < 50 nM)
C=CC(=O)Nc1cc(Nc2cc(N3OCC[C@@H]3c3ccc(F)cc3)ncn2)c(OC)cc1N1CCC(N2C[C@H]3CCN(C)[C@H]3C2)CC1 [compound 541, N-(5-((6-((R)-3-(4-fluorophenyl)isoxazolidine-2-yl)pyrimidine-4-yl)amino)-4-methoxy-2-(4-((3aR,6aR)-1-methylhexahydropyrrolo [3,4-b]pyrrole-5(1H)-yl)piperidine-1-yl)phenyl)acrylamide]	A (GI50 < 50 nM)
C=CC(=O)Nc1cc(Nc2cc(N3OCC[C@@H]3Cc3ccccc3)ncn2)c(OC)cc1-n1ccnc1C [compound 960, N-(5-((6-((S)-3-benzylisoxazolidine-2-yl)pyrimidine-4-yl)amino)-4-methoxy-2-(2-methyl-1H-imidazole-1-yl)phenyl)acrylamide]	B (50 nM ≤ GI50 < 500 nM)
C=CC(=O)Nc1cc(Nc2cc(N3OCC[C@@H]3c3cc(F)cc(F)c3)ncn2)c(OC)cc1N1CCC(N2C[C@@H](C)O[C@@H](C)C2)CC1 [Example 266, N-(5-((6-((R)-3-(3,5-difluorophenyl)isoxazolidine-2-yl)pyrimidine-4-yl)amino)-2-(4-((2S,6R)-2,6-dimethylmorpholino)piperidine-1-yl)-4-methoxyphenyl) acrylamide]	A (GI50 < 50 nM)

Continued, values first:

Ba/F3 (NPH) Activity	Structure (SMILES)
A (GI50 < 50 nM)	C=CC(=O)Nc1cc(Nc2cc(N3OCC[C@@H]3c3cc(F)ccc3F)ncn2)c(OC)cc1N1CC[C@H](N(C)C)C1 [compound 301, N-(5-((6-((R)-3-(2,5-difluorophenyl)isoxazolidine-2-yl)pyrimidine-4-yl)amino)-2-((S)-3-(dimethylamino)pyrolidine-1-yl)-4-methoxyphenyl) acrylamide]
A (GI50 < 50 nM)	C=CC(=O)Nc1cc(Nc2cc(N3OCC[C@@H]3c3cc(F)ccc3F)ncn2)c(OC)cc1N(C)CCN(C)C [compound 882, N-(5-((6-((R)-3-(2,5-difluorophenyl)isoxazolidine-2-yl)pyrimidine-4-yl)amino)-2-((2-(dimethylamino)ethyl)(methyl)amino)-4-methoxyphenyl) acrylamide]
A (GI50 < 50 nM)	C=CC(=O)Nc1cc(Nc2cc(N3OCC[C@@H]3c3cc(F)ccc3F)ncn2)c(OC)cc1N1CCC(N2C[C@@H]3C[C@H]2CO3)CC1 [compound 826, N-(2-(4-((1S,4S)-2-oxa-5-azabicyclo [2.2.1]heptane-5-yl)piperidine-1-yl)-5-((6-((R)-3-(2,5-difluorophenyl)isoxazolidine-2-yl)pyrimidine-4-yl)amino)-4-methoxyphenyl) acrylamide]
B (50 nM ≤ GI50 < 500 nM)	C=CC(=O)Nc1cc(Nc2cc(N3OCC[C@@H]3c3ccc(F)cc3F)ncn2)c(OC)cc1-n1cnc(C)c1 [compound 386, N-(5-((6-((R)-3-(2,4-difluorophenyl)isoxazolidine-2-yl)pyrimidine-4-yl)amino)-4-methoxy-2-(4-methyl-1H-imidazole-1-yl)phenyl)acrylamide]
B (50 nM ≤ GI50 < 500 nM)	C=CC(=O)Nc1cc(Nc2cc(N3OCC[C@@H]3c3ccc(C)nc3)ncn2)c(OC)cc1N1CC[C@H](N(C)C)C1 [Example 222, N-(2-((S)-3-(dimethylamino)pyrolidine-1-yl)-4-methoxy-5-((6-((R)-3-(6-methylpyridine-3-yl)isoxazolidine-2-yl)pyrimidine-4-yl)amino)phenyl)acrylamide]
A (GI50 < 50 nM)	C=CC(=O)Nc1cc(Nc2cc(N3OCC[C@@H]3c3cccc(F)c3F)ncn2)c(OC)cc1N1CCO[C@H](C)C1 [compound 889, N-(5-((6-((R)-3-(2,3-difluorophenyl)isoxazolidine-2-yl)pyrimidine-4-yl)amino)-4-methoxy-2-((R)-2-methylmorpholino)phenyl)acrylamide]
A (GI50 < 50 nM)	C=CC(=O)Nc1cc(Nc2cc(N3OCC[C@@H]3c3ccc(F)cc3F)ncn2)c(OC)cc1N1CCC(N2C[C@@H]3C[C@H]2CN3CC)CC1 [compound 382, N-(5-((6-((R)-3-(2,4-difluorophenyl)isoxazolidine-2-yl)pyrimidine-4-yl)amino)-2-(4-((1S,4S)-5-ethyl-2,5-diazabicyclo [2.2.1]heptane-2-yl)piperidine-1-yl)-4-methoxyphenyl) acrylamide]
